# Test results published in patent US12459894B2, “Orally active melanocortin receptor-4 compounds” (Palatin Technologies, Inc., priority 2018, dated 2025).
# Marks after values point to notes of the source that are not given here.
# What was measured:
# [1] = Plasma concentrations following oral administration; assay type: in vivo, Sprague-Dawley rats; details: Sprague-Dawley, rat, oral 30 mg/kg
# Protocol: Plasma samples were measured at 15 minutes (2 animals) and 30 minutes, 1 hour, 2 hours, 4 hours, 8 hours and 24 hours (3 animals) post oral administration.
# [2] = system: male mice homogygous for the obese spontaneous mutation, Lep^ob; experiment: Oral administration in leptin-deficient obese mice; assay type: in vivo, mouse; details: 30 mg/kg twice daily for six consecutive days
# Protocol: Male mice homogygous for the obese spontaneous mutation, Lep^ob, with resulting leptin protein deficiency, were individually housed with free access to feed and drinking water. All animals were sham-dosed twice daily for five days prior to initial drug administration, utilizing a vehicle dose of 3.2% mannitol and […] tris(hydroxymethyl)aminomethane at pH 7.4. On day 6 a cohort of the mice received compound 7.1 dissolved into the vehicle twice daily for six consecutive days at a dose of 30 mg/kg. Body weight of animals was measured daily, with data analyzed as the percent change from baseline of each individual animal, where baseline was defined as the average weight during the first three days of sham dosing. The averaged percent change from baseline of a vehicle group was then subtracted from each value to correct for continued weight gain or other study-wide factors. The change in body weight is shown in FIG. 3 starting on study day […], the first day of administration of compound 7.1.
# hMC2r = molecular target: T1, hMC2r (Homo sapiens, UniProt Q01718); experiment: cAMP assay, human recombinant Cloudman M3 cells, ACTH reference; assay type: cell-based; details: vs ACTH
# T1 construct: expressed in transfected cells; host or cells: Cloudman M3 cells
# Protocol: (§1) Melanocortin receptor binding and function of Compound 7.1 was tested. Ki binding values (nM) were calculated utilizing the percent inhibit of the binding of iodine-125 labeled NDP-α-MSH against B16-F1 cells for mMC1r, and human recombinant CHO cells for hMC3r, hMC4r and hMC5r, with the inhibition constant calculated using the Cheng Prusoff equation. Functional results (EC50 and efficacy) were calculated utilizing cAMP assays with NDP-α-MSH for mMC1r, hMC3r and hMC4r, ACTH for hMC2r, and α-MSH for hMC5r for agonist measures, with the same target cells for melanocortin receptors mMC1r, hMC3r, hMC4r and hMC5r, and human recombinant Cloudman M3 cells for hMC2r.
# MC4r (−/−) mice = experiment: Oral administration in MC4r knockout mice; assay type: in vivo, mouse; details: 30 mg/kg twice daily oral gavage
# Protocol: (§2) Feed intake and body weight was evaluated in MCr4 knockout (MC4r −/−) mice (Jackson Laboratories) compared to C57BI/6 DIO mice. […] Feed weights were taken at time 0, 2, 6 and 24 hours post lights out. […] The change in body weight is shown in FIG. 4 starting on study day 5, the first day of administraton of compound 7.1. […] Additionally, there was a statistically significant mean difference, 2.8%, 95% Cl (1.281, 4.253), and p value<0.0001 between DIO mice receiving compound 7.1 and MC4r (−/−) receiving compound 7.1.
# C57BL/6 male DIO mice = experiment: Body weight and food intake in vivo study in diet induced obese (DIO) mice; parameters: species or system mouse
# Protocol: Compound 7.1 was assessed in a body weight and food intake in vivo study in diet induced obese (DIO) mice. C57BL/6 male DIO mice were utilized, that were 17 weeks of age on arrival. Animals were pre-conditioned on a high-fat diet for 11 weeks by Jackson Labs. […] Animals were single housed within a limited access rodent facility, and provided ad libitum with a commercial rodent diet and free access to drinking water. Animals were randomized into five groups, a vehicle group, three dose levels of compound 7.1 (3 mg/kg, 10 mg/kg and 30 mg/kg), and Peptide A, a positive control cyclic peptide of the formula Ac-Arg-cyclo(Om-Asn-D-Phe-Arg-Trp-Glu)-NH2. Following three days of sham dosing, animals were dosed for three days, with vehicle or Compound 7.1 dosed orally once daily at within one hour of lights out in the AM, and Peptide A dosed by subcutaneous injection twice daily within one hour before lights out and six hours after lights out. Body weights were measured one hour prior to lights out, and feed weights were measured both one hour prior to lights out and six hours post lights out.
# • *p<0.05 vs. sham (vehicle control) using two-way ANOVA followed by Dunnett's post-test. • **p<0.01 vs sham (vehicle control) using two-way ANOVA followed by Dunnett's post-test.
# hMC5r = molecular target: T2, hMC5r (Homo sapiens, UniProt P33032); experiment: cAMP assay, human recombinant CHO cells, α-MSH reference; assay type: cell-based; details: vs α-MSH
# T2 construct: expressed in transfected cells; host or cells: CHO
# Protocol: as §1
# hMC3r = molecular target: T3, hMC3r (Homo sapiens, UniProt P41968); experiment: cAMP assay, human recombinant CHO cells, NDP-α-MSH reference; assay type: cell-based; details: vs NDP-α-MSH
# T3 construct: expressed in transfected cells; host or cells: CHO
# Protocol: as §1
# MC4r = MC4r (Homo sapiens, UniProt P32245); experiment: as above; assay type: cell-based; parameters: expressed in transfected cells; host or cells: CHO; details: vs NDP-α-MSH
# Protocol: as §1
# mMC1r = molecular target: T4, mMC1r (Mus musculus, UniProt Q01727); experiment: cAMP assay, B16-F1 cells, NDP-α-MSH reference; assay type: cell-based; details: vs NDP-α-MSH
# T4 construct: endogenous in cells; host or cells: B16-F1 mouse melanoma cells
# Protocol: as §1
# C57BI/6 DIO mice = experiment: Oral administration in DIO mice (comparison to MC4r knockout mice); assay type: in vivo, mouse
# Protocol: as §2
# T1 sequence (Q01718 whole entry): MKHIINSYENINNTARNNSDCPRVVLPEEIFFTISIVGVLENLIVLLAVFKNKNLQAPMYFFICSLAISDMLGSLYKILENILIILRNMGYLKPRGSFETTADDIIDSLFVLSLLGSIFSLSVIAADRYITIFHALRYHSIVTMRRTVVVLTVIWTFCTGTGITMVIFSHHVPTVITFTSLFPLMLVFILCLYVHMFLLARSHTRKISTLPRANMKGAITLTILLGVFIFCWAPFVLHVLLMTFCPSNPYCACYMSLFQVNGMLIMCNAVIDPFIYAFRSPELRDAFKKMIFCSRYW
# T1 sequence (Q9D159 whole entry partner): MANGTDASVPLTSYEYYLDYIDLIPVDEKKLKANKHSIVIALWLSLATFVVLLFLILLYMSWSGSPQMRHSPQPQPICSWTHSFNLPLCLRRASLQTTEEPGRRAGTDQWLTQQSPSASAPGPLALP
# T4 sequence (Q01727 whole entry): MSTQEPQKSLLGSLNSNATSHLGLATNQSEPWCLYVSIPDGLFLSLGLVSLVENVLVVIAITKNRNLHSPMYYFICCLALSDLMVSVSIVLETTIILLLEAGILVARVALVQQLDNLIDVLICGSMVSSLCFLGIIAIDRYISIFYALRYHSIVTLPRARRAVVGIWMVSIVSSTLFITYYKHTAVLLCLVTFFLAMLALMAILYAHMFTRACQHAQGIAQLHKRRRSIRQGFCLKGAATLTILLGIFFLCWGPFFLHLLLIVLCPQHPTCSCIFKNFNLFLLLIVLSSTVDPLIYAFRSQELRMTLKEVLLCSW
# T3 sequence (P41968 whole entry): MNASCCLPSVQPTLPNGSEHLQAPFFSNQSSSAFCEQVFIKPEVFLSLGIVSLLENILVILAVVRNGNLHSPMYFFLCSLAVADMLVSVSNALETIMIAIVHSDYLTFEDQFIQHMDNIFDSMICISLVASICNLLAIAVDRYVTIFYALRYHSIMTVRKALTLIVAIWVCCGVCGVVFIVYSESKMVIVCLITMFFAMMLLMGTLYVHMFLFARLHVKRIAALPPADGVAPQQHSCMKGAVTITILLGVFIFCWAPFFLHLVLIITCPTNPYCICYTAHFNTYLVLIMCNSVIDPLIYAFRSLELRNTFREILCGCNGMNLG
# Sequence of MC4r (P32245 whole entry): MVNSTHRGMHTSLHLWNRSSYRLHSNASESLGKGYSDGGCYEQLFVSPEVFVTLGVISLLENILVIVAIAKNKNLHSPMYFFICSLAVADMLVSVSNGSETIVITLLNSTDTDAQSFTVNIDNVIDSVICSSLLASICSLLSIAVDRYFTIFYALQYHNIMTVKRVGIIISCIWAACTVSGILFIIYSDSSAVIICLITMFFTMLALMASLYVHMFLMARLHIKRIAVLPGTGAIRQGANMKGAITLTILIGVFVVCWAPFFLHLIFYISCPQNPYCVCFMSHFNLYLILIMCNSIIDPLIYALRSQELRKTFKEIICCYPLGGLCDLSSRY
# T2 sequence (P33032 whole entry): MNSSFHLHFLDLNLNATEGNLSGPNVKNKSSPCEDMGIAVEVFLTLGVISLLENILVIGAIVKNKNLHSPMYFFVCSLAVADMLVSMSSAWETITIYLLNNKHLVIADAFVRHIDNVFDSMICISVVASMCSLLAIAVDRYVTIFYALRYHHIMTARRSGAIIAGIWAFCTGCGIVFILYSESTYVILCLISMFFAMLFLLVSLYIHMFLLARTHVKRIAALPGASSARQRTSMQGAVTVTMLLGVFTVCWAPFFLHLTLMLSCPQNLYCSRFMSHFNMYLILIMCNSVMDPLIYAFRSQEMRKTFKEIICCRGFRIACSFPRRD
smiles,measurement,setting,value
"CC(=O)N1CCC(N(CC(C)C)N2CCN(C(=O)[C@@H](Cc3ccc(Cl)cc3)NC(=O)C(C)(C)N)CC2)CC1 [Compound 7.1, N-[(1R)-2-[4-[(1-acetyl-4-piperidyl)-isobutyl-amino]piperazin-1-yl]-1-[(4-chlorophenyl)methyl]-2-oxo-ethyl]-2-amino-2-methyl-propanamide]",Tmax,[1],2 h
same,decrease in body weight compared to vehicle controls,[2],4.8%
same,cAMP Efficacy,hMC2r,22%
same,food consumption vs vehicle only,MC4r (−/−) mice,no differences in food consumption
same,Body Weight Change (%) Mean,"C57BL/6 male DIO mice; 3 mg/kg orally once daily, Day 0",0%
same,Food Intake - 24 Hours (g) Mean,"C57BL/6 male DIO mice; 3 mg/kg orally once daily, Day 0, 24 hours post lights out",1.90 g
same,Body Weight Change (%) Mean,"C57BL/6 male DIO mice; 3 mg/kg orally once daily, Day 1",−1.97%
same,Food Intake - 24 Hours (g) Mean,"C57BL/6 male DIO mice; 3 mg/kg orally once daily, Day 1, 24 hours post lights out",2.03 g
same,Body Weight Change (%) Mean,"C57BL/6 male DIO mice; 3 mg/kg orally once daily, Day 2",−2.92%
same,Food Intake - 24 Hours (g) Mean,"C57BL/6 male DIO mice; 3 mg/kg orally once daily, Day 2, 24 hours post lights out",2.11 g
same,Body Weight Change (%) Mean,"C57BL/6 male DIO mice; 3 mg/kg orally once daily, Day 3",−3.80* %
same,body weight,"C57BL/6 male DIO mice; 3 mg/kg, day 3",body weight loss on day 3
same,Body Weight Change (%) Mean,"C57BL/6 male DIO mice; 10 mg/kg orally once daily, Day 0",0%
same,Food Intake - 24 Hours (g) Mean,"C57BL/6 male DIO mice; 10 mg/kg orally once daily, Day 0, 24 hours post lights out",1.82 g
same,Body Weight Change (%) Mean,"C57BL/6 male DIO mice; 10 mg/kg orally once daily, Day 1",−2.48* %
same,Food Intake - 24 Hours (g) Mean,"C57BL/6 male DIO mice; 10 mg/kg orally once daily, Day 1, 24 hours post lights out",1.78 g
same,Body Weight Change (%) Mean,"C57BL/6 male DIO mice; 10 mg/kg orally once daily, Day 2",−3.77** %
same,Food Intake - 24 Hours (g) Mean,"C57BL/6 male DIO mice; 10 mg/kg orally once daily, Day 2, 24 hours post lights out",2.20 g
same,Body Weight Change (%) Mean,"C57BL/6 male DIO mice; 10 mg/kg orally once daily, Day 3",−4.35** %
same,Body Weight Change (%) Mean,"C57BL/6 male DIO mice; 30 mg/kg orally once daily, Day 0",0%
same,Food Intake - 24 Hours (g) Mean,"C57BL/6 male DIO mice; 30 mg/kg orally once daily, Day 0, 24 hours post lights out",1.62* g
same,Body Weight Change (%) Mean,"C57BL/6 male DIO mice; 30 mg/kg orally once daily, Day 1",−4.41** %
same,Food Intake - 24 Hours (g) Mean,"C57BL/6 male DIO mice; 30 mg/kg orally once daily, Day 1, 24 hours post lights out",1.60* g
same,Body Weight Change (%) Mean,"C57BL/6 male DIO mice; 30 mg/kg orally once daily, Day 2",−5.82** %
same,Food Intake - 24 Hours (g) Mean,"C57BL/6 male DIO mice; 30 mg/kg orally once daily, Day 2, 24 hours post lights out",1.91* g
same,Body Weight Change (%) Mean,"C57BL/6 male DIO mice; 30 mg/kg orally once daily, Day 3",−7.08** %
same,feed intake,"C57BL/6 male DIO mice; 30 mg/kg, 24 hours post lights out, entirety of the study, vs sham",significantly inhibited feed intake
same,body weight,"C57BL/6 male DIO mice; daily 10 mg/kg and 30 mg/kg, day 1 to 3",significant body weight loss
same,cAMP Efficacy,hMC5r,20%
same,cAMP Efficacy,hMC3r,28%
same,cAMP Efficacy,MC4r,91%
same,cAMP Efficacy,mMC1r,72%
same,food consumption vs vehicle only,"C57BI/6 DIO mice; 30 mg/kg twice daily oral gavage, DIO mice, 6 and 24 hour timepoints",significantly decreased
same,mean difference in body weight change between DIO mice and MC4r (−/−) mice receiving compound,"C57BI/6 DIO mice; 30 mg/kg twice daily oral, p value<0.0001",2.8%
same,body weight vs own vehicle group,"C57BI/6 DIO mice; 30 mg/kg two daily administrations via oral gavage, DIO mice",significant body weight loss
same,mean percentage body weight change difference between treated group and vehicle,"C57BI/6 DIO mice; DIO mice, 30 mg/kg twice daily oral",4.9%
